# Assay results as given in PubChem BioAssay AID2060501 (Molecular Pharmacology Branch, DTP, NCI, 2025).
# pIC50: −log10 of the molar value.
# System: 282377-053-R-J1-PDC complex spheroids, viability
# Test: Anticancer human tumor 282377-053-R-J1-PDC patient-derived colon adenocarcinoma cell line growth inhibition [GQUAD]
# Details: for pIC50: curve of first compound; for viability, T/C: stronger effect = lower value
# Text: DNA G-quadruplex Stabilizer Agents in Combinations in Complex Spheroids
# A high-throughput screen of multi-cell type tumor spheroids was designed to identify active combinations of DNA G-quadruplex stabilizer agents and targeted small molecules. Complex spheroids include a stromal component modeled by human endothelial cells (HUVEC) and fibroblasts modeled by human mesenchymal stem cells (MSCs). The concentration ranges selected for each drug and investigational agent were based upon clinically achievable concentrations if the clinical Cmax of the agent was known.
# Compounds. The drugs and investigational agents: pidnarulex (CX-5461; NSC782164), APTO-253 (NSC789042), BRACO-19 (NSC847499), peposertib (NSC802822), ceralasertib (NSC780249), elimusertib (NSC800525), camonsertib (NSC841442), AZD-1390 (NSC803789), olaparib (NSC753686), talazoparib (NSC767125), ART-558 (NSC835418), sotorasib (NSC818433), MRTX-1133 (NSC836407), SN-38 (NSC673596), topotecan (NSC609699), etoposide (NSC141540), doxorubicin (NSC123127), gemcitabine (NSC613327), 5-fluorouracil (NSC19893), paclitaxel (NSC125973), vemurafenib (NSC761431), panobinostat (NSC761190), R-306465 (JNJ-16241199; NSC773264), adavosertib (NSC754352), TP-3654 (NSC805149), carboplatin (NSC241240), KSQ-4279 (NSC840948), and staurosporine (NSC755774) were obtained from the National Cancer Institute (NCI) Developmental Therapeutics Program Chemical Repository (34). The FDA-approved anticancer drug set is available from the NCI Developmental Therapeutics Program. […] The stock solutions were prepared in dimethyl sulfoxide (DMSO, Sigma-Aldrich, St. Louis, MO, cat. D2650) at 800-fold the tested concentration and stored at -70 degrees C prior to their use. All drugs and investigational agents were tested over a range starting from a high concentration at or near the clinical Cmax and decreasing in half-log increments. If the clinical Cmax for an agent had not been determined, the highest concentration tested was 10 microM.
# 2.3 Cell Culture. All cells were maintained in an incubator at 37 degrees C and 5% CO2 with 95% humidity. The PDC lines were cultured according to standard operating procedures established by the NCI PDMR. All PDCs were thawed and cultured in Matrigel-coated flasks prepared with a working solution of 1X Ham's F-12 nutrient mix, without supplementation (Invitrogen, cat. 11765054), 100 U/mL penicillin-streptomycin (Invitrogen, cat. 15140122), and 2.5% Matrigel (Corning Inc., cat. 354248) for the first three passages. The 857933-349-R-J2-PDC line was cultured in 6C/Colon 1B media, which includes advanced DMEM/F-12 (Thermo Fisher Scientific, cat. 12634028), 10 mM HEPES (Thermo Fisher Scientific, cat. 15630080), 1X GlutaMAX supplement (Thermo Fisher Scientific, cat. 35050061), 0.1 mg/mL primocin (InvivoGen, cat. ant-pm-2), 10% defined fetal bovine serum, heat inactivated (HyClone Laboratories Inc., cat. SH30070.03HI), 50% L-WRN conditioned media (ATCC, cat. CRL-3276), 1.25 mM N-Acetyl-L-cysteine (Sigma-Aldrich, cat. A9165), 10 mM nicotinamide (Sigma-Aldrich, cat. N0636), 1X B-27 supplement (Thermo Fisher Scientific, cat. 17504044), 1X N-2 supplement (Thermo Fisher Scientific, cat. 17502048), 10 microM Y-27632 dihydrochloride (Tocris Bioscience, cat. 1254), and 50 ng/mL human EGF recombinant protein (Thermo Fisher Scientific, cat. PHG0311). The 485176-168-R4-J1-PDC line was cultured in Panc media, which includes all 6C/Colon 1B media components plus 100 ng/mL human FGF-10 (Thermo Fisher Scientific, cat. 100-26), 500 nM SB-431542 (Selleckchem, cat. S1067), and gastrin (Tocris, cat. 3006).
# […]
# [1] = second compound 0.0316 µM, first compound 0.0316 µM
# [2] = second compound 0.0316 µM, first compound 0.1 µM
# [3] = second compound 0.0316 µM, first compound 0.316 µM
# [4] = second compound 0.0316 µM, first compound 1 µM
# [5] = second compound 0.0316 µM, first compound 3.16 µM
# [6] = second compound 0.0316 µM, first compound 10 µM
# [7] = second compound 0.1 µM, first compound 0.0316 µM
# [8] = second compound 0.1 µM, first compound 0.1 µM
# [9] = second compound 0.1 µM, first compound 0.316 µM
# [10] = second compound 0.1 µM, first compound 1 µM
# [11] = second compound 0.1 µM, first compound 3.16 µM
# [12] = second compound 0.1 µM, first compound 10 µM
# [13] = second compound 0.316 µM, first compound 0.0316 µM
# [14] = second compound 0.316 µM, first compound 0.1 µM
# [15] = second compound 0.316 µM, first compound 0.316 µM
# [16] = second compound 0.316 µM, first compound 1 µM
# [17] = second compound 0.316 µM, first compound 3.16 µM
# [18] = second compound 0.316 µM, first compound 10 µM
# [19] = second compound 1 µM, first compound 0.0316 µM
# [20] = second compound 1 µM, first compound 0.1 µM
# [21] = second compound 1 µM, first compound 0.316 µM
# [22] = second compound 1 µM, first compound 1 µM
# [23] = second compound 1 µM, first compound 3.16 µM
# [24] = second compound 1 µM, first compound 10 µM
# [25] = second compound 3.16 µM, first compound 0.0316 µM
# [26] = second compound 3.16 µM, first compound 0.1 µM
# [27] = second compound 3.16 µM, first compound 0.316 µM
# [28] = second compound 3.16 µM, first compound 1 µM
# [29] = second compound 3.16 µM, first compound 3.16 µM
# [30] = second compound 3.16 µM, first compound 10 µM
# [31] = second compound 10 µM, first compound 0.0316 µM
# [32] = second compound 10 µM, first compound 0.1 µM
# [33] = second compound 10 µM, first compound 0.316 µM
# [34] = second compound 10 µM, first compound 1 µM
# [35] = second compound 10 µM, first compound 3.16 µM
# [36] = second compound 10 µM, first compound 10 µM
# 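Note: spheroids exposed to compounds for 7 days before readout.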
# 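Throughout, for viability, T/C: percent of vehicle DMSO control viability with 100% = untreated-like growth.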
compound,measurement,setting,value
Cc1cccc(N(C)C(=O)C2C(O)CCN2c2nc(C)cc(C(F)(F)F)c2C#N)c1 (stereo unspecified) + CN(C)c1ccc(Nc2c3ccc(NC(=O)CCN4CCCC4)cc3nc3cc(NC(=O)CCN4CCCC4)ccc23)cc1,pIC50,second compound 0.0316 µM,< 5.00
same,pIC50,second compound 0.1 µM,< 5.00
same,pIC50,second compound 0.316 µM,< 5.00
same,pIC50,second compound 1 µM,< 5.00
same,pIC50,second compound 3.16 µM,< 5.00
same,pIC50,second compound 10 µM,< 5.00
same,"viability, T/C",[1],110%
same,"viability, T/C",[2],104%
same,"viability, T/C",[3],93.3%
same,"viability, T/C",[4],98.7%
same,"viability, T/C",[5],78.2%
same,"viability, T/C",[6],104%
same,"viability, T/C",[7],105%
same,"viability, T/C",[8],96.9%
same,"viability, T/C",[9],103%
same,"viability, T/C",[10],93.8%
same,"viability, T/C",[11],96.3%
same,"viability, T/C",[12],82.3%
same,"viability, T/C",[13],101%
same,"viability, T/C",[14],103%
same,"viability, T/C",[15],84.5%
same,"viability, T/C",[16],106%
same,"viability, T/C",[17],90.2%
same,"viability, T/C",[18],63.8%
same,"viability, T/C",[19],100%
same,"viability, T/C",[20],87.5%
same,"viability, T/C",[21],90.5%
same,"viability, T/C",[22],90.1%
same,"viability, T/C",[23],94.6%
same,"viability, T/C",[24],88.1%
same,"viability, T/C",[25],94.2%
same,"viability, T/C",[26],96.8%
same,"viability, T/C",[27],96.7%
same,"viability, T/C",[28],94.5%
same,"viability, T/C",[29],128%
same,"viability, T/C",[30],109%
same,"viability, T/C",[31],91.8%
same,"viability, T/C",[32],97%
same,"viability, T/C",[33],110%
same,"viability, T/C",[34],105%
same,"viability, T/C",[35],122%
same,"viability, T/C",[36],80%
O=C(c1cc(Cc2n[nH]c(=O)c3ccccc23)ccc1F)N1CCN(C(=O)C2CC2)CC1 + CN(C)c1ccc(Nc2c3ccc(NC(=O)CCN4CCCC4)cc3nc3cc(NC(=O)CCN4CCCC4)ccc23)cc1,pIC50,second compound 0.0316 µM,< 5.00
same,pIC50,second compound 0.1 µM,< 5.00
same,pIC50,second compound 0.316 µM,< 5.00
same,pIC50,second compound 1 µM,< 5.00
same,pIC50,second compound 3.16 µM,< 5.00
same,pIC50,second compound 10 µM,< 5.00
same,"viability, T/C",[1],102%
same,"viability, T/C",[2],91.5%
same,"viability, T/C",[3],94.2%
same,"viability, T/C",[4],97.4%
same,"viability, T/C",[5],105%
same,"viability, T/C",[6],96.8%
same,"viability, T/C",[7],128%
same,"viability, T/C",[8],107%
same,"viability, T/C",[9],96.9%
same,"viability, T/C",[10],100%
same,"viability, T/C",[11],89.7%
same,"viability, T/C",[12],90.7%
same,"viability, T/C",[13],102%
same,"viability, T/C",[14],92.6%
same,"viability, T/C",[15],83.4%
same,"viability, T/C",[16],81.5%
same,"viability, T/C",[17],91.2%
same,"viability, T/C",[18],109%
same,"viability, T/C",[19],108%
same,"viability, T/C",[20],88%
same,"viability, T/C",[21],88.1%
same,"viability, T/C",[22],74.9%
same,"viability, T/C",[23],74.7%
same,"viability, T/C",[24],92.4%
same,"viability, T/C",[25],91.6%
same,"viability, T/C",[26],83.5%
same,"viability, T/C",[27],99.3%
same,"viability, T/C",[28],101%
same,"viability, T/C",[29],86.5%
same,"viability, T/C",[30],89.5%
same,"viability, T/C",[31],99%
same,"viability, T/C",[32],88.4%
same,"viability, T/C",[33],105%
same,"viability, T/C",[34],75.9%
same,"viability, T/C",[35],108%
same,"viability, T/C",[36],119%
O=c1[nH]cc(F)c(=O)[nH]1 + CN(C)c1ccc(Nc2c3ccc(NC(=O)CCN4CCCC4)cc3nc3cc(NC(=O)CCN4CCCC4)ccc23)cc1,pIC50,second compound 0.0316 µM,< 5.00
same,pIC50,second compound 0.1 µM,< 5.00
same,pIC50,second compound 0.316 µM,< 5.00
same,pIC50,second compound 1 µM,< 5.00
same,pIC50,second compound 3.16 µM,< 5.00
same,pIC50,second compound 10 µM,< 5.00
same,"viability, T/C",[1],95.5%
same,"viability, T/C",[2],87.1%
same,"viability, T/C",[3],110%
same,"viability, T/C",[4],81%
same,"viability, T/C",[5],73.4%
same,"viability, T/C",[6],74.1%
same,"viability, T/C",[7],101%
same,"viability, T/C",[8],93.1%
same,"viability, T/C",[9],104%
same,"viability, T/C",[10],88.8%
same,"viability, T/C",[11],74.5%
same,"viability, T/C",[12],73.2%
same,"viability, T/C",[13],106%
same,"viability, T/C",[14],94.3%
same,"viability, T/C",[15],106%
same,"viability, T/C",[16],96%
same,"viability, T/C",[17],67.8%
same,"viability, T/C",[18],73.8%
same,"viability, T/C",[19],108%
same,"viability, T/C",[20],94.4%
same,"viability, T/C",[21],106%
same,"viability, T/C",[22],89.9%
same,"viability, T/C",[23],77.8%
same,"viability, T/C",[24],69%
same,"viability, T/C",[25],83.1%
same,"viability, T/C",[26],75.7%
same,"viability, T/C",[27],89.2%
same,"viability, T/C",[28],79.1%
same,"viability, T/C",[29],68.2%
same,"viability, T/C",[30],64.5%
same,"viability, T/C",[31],92.8%
same,"viability, T/C",[32],81.3%
same,"viability, T/C",[33],88.5%
same,"viability, T/C",[34],81.7%
same,"viability, T/C",[35],70.1%
same,"viability, T/C",[36],57.9%
